The test system of assay [1] is AML12 cells (mouse hepatocyte cell lines). As to the kind of experiment: Fibrosis markers by Western blotting after TGF-β induction, TGF-β receptor inhibitor. It is filed as cell-based. The conditions noted are these: 2 ng/ml TGF-β, 10 μM EW-7197, 24 hours, FIG. 2. The method, then: (§1) Cell experiments were performed by using AML12, […], and LX-2 cells, a human hepatic stellate cell.
AML12 cells were cultured in a culture medium made by adding 5 ml of insulin (ITS), 40 ng/ml of dexamethasone, 1% penicillin streptomycin (anti-anti), and 10% fetal bovine serum (FBS) to F-12 media (Corning Incorporated, USA, Arizona), a mixture of a DMEM medium and Ham's F-12 at a ratio of 50:50, which is used for culturing hepatocytes or prostate epithelial cells.
(§2) Fibrosis was induced in hepatocytes with TGF-β, a TGF-β receptor inhibitor was administered, and fibrosis was checked.
(§3) Specifically, 2 ng/ml of TGF-β was administered to the cells of Example 1-1, and administered or not administered with 10 μM EW-7197 (EW), and cultured for 24 hours. The control group (Con) was not treated with either TGF-β or the sample. […] A protein concentration was measured by BCA assay (Pierce Biotechnology Inc). […] Then, the membranes were washed, briefly incubated with Pico Enhanced Peroxidase Detection (EPD) Western reagent (ELPISBIOTECH. INC.) according to the manufacturer's procedure, and quantified by using an image analyzer (ImageQuant™ LAS 500, GE Healthcare Bio-Sciences AB, Uppsala, Sweden). β-actin was used as an internal control. Densitometry of protein intensity was quantified by using ImageJ (National Institutes of Health). […]
For orientation: Immunoblotting shows a protein as a band on a membrane.

In assay [2] the test system is LX-2 cells (human hepatic stellate cell lines). The assay is described as above. It is filed as cell-based. The following applies: 2 ng/ml TGF-β, 10 μM EW-7197, 24 hours, FIG. 3. The method, then: as §1
LX-2 cells were cultured in a culture medium made by adding 1% penicillin streptomycin (anti-anti) and 10% fetal bovine serum (FBS) to a DMEM medium containing high glucose (4500 mg/L D-glucose, L-glutamine, 110 mg/L sodium pyruvate, sodium bicarbonate).
as §2, §3

For assay [3], the system named is C57BL/6 mice in which steatohepatitis was induced with a methionine-choline deficient diet. As to the kind of experiment: Steatohepatitis animal model (MCD), curcumin 5-8 and low-concentration EW-7197 (5 mg/kg). The format is in vivo, mouse. The conditions noted are these: MCD-fed C57BL/6 mice, 6 weeks; EW-7197 5 mg/kg oral; curcumin 5-8 1 g per 1 kg diet. As for the experimental part: 8-week-old male C57BL/6 mice weighing 20 to 25 g were purchased from Dae Han Bio Link Co., Ltd. (Chungbuk). […] Mice were fed with a normal diet (Research Diets, RD) and allowed to drink water freely. […] In order to confirm the physiological changes in case of co-administration of a curcumin derivative (Cur5-8) and a TGF-β receptor inhibitor (EW-7197), the liver weights and the concentrations of TG, TC, AST, ALT, and γ-GT in serum were measured. In addition, hydroxyprolin expression was checked as a fibrosis marker in the liver tissues. Specifically, the weights of the liver tissues harvested in Examples 2-1 and 2-2 were measured before storage. […] In order to measure blood glucose, triglyceride, cholesterol, and AST and ALT concentrations, ELISA kit of Asan Pharm. Co., Ltd. was purchased, and the measuring was performed. γ-GT in the liver was measured by using Mak089 of Sigma-Aldrich, and hydroxyproline was measured by using STA-675 ELISA kit of Cell Biolabs, Inc. In addition, the hydroxyprolin expression was checked in the liver tissues harvested in Examples 2-1 and 2-2. In order to check effects of inhibiting fat accumulation in liver tissues and fibrosis in liver tissues in case of co-administration of a curcumin derivative (Cur5-8) and a TGF-β receptor inhibitor (EW-7197), the liver tissues were stained. The liver tissues harvested in Examples 2-1 and 2-2 were fixed with 10% formaldehyde, the formaldehyde was washed out with running water for more than 12 hours, and then washing was performed with 60% ethanol at a one-hour interval, with 70% ethanol at a one-hour interval, and with 100% ethanol at a one-hour interval. Then, the transparency process in xylene was performed three times for one hour each, and the infiltration process in paraffin was performed twice for one hour each. Then, the paraffin block was cut to a thickness of about […] to obtain slices. […] In addition, H&E-stained liver slices were evaluated by using the NAFLD activity score (NAS) system. […]

The next assay relates to renal fibrosis model. The following applies: unilateral ureteral obstruction (UUO); previous studies; cited from earlier work.

`Cc1cccc(-c2[nH]c(CNc3ccccc3F)nc2-c2ccc3ncnn3c2)n1` [EW-7197, N-(2-fluorophenyl)-5-(6-methyl-2-pyridinyl)-4-[1,2,4]triazolo[1,5-a]pyridin-6-yl-1H-imidazole-2-methanamine]: the “protein expressions of α-SMA, Coll, p-SMAD2, and p-SMAD3 increased by TGF-β” value in assay [1] is recorded as “inhibited”. Besides, the “protein expressions of α-SMA, Coll, p-SMAD2, and p-SMAD3 increased by TGF-β” value in assay [2] is recorded as “inhibited”. In assay [3], this molecule showed an ALT of 96.1 ± 17.96 IU/L, an AST of 159.6 ± 26.73 IU/L and a TG of 28.3 ± 4.84 mg/dL. In addition, in the assay on renal fibrosis model, the “tissue fibrosis (renal)” value is on record as “suppressing tissue fibrosis”.

These data come from patent US20230364069A1, “METHOD FOR TREATING NON-ALCOHOLIC STEATOHEPATITIS THROUGH CO-ADMINISTRATION OF CURCUMIN DERIVATIVE AND TGF-B RECEPTOR INHIBITOR” (UNIVERSITY INDUSTRY FOUNDATION, YONSEI UNIVERSITY WONJU …, priority 2021, published 2023).
